We go through one compound from ChEMBL document CHEMBL4311992, “Discovery of 3-(((9H-purin-6-yl)amino)methyl)-4,6-dimethylpyridin-2(1H)-one derivatives as novel tubulin polymerization inhibitors for treatment of cancer” (Eur J Med Chem, 2019).

Active and inactive are the calls of the source. The calls are words filed in the database; no cut-off is given here.

The target of one data set is Tubulin (Homo sapiens) (UniProt P68371+Q9H4B7+P0DPH7+P68366+Q13509+Q71U36+P04350+Q3ZCM7+P07437+P68363+Q9BQE3+Q6PEY2+Q13885+Q9BVA1+Q9BUF5). The data set is described as follows: Disruption of microtubule network in human SW620 cells assessed as microtubule condensation at 50 nM incubated for 18 hrs by FITC/DAPI staining-based confocal microscopic analysis. It counts as cell-based.

In data set [1] the test system is Mast/stem cell growth factor receptor Kit (Homo sapiens), P10721 [D816H]. The data set is described as follows: Inhibition of recombinant human c-Kit D816H mutant (544 to end residues) assessed as residual activity at 10 uM using GGMEDIYFEFMGGKKK as substrate measured after 40 mins in presence of [gamma33P]ATP by scintillation counting method.
Data set [2] concerns the target Non-receptor tyrosine-protein kinase TYK2 (Homo sapiens) (UniProt P29597). Put plainly: Inhibition of human TYK2 (875 to end residues) using GGMEDIYFEFMGGKKK as substrate measured after 40 mins in presence of [gamma33P]ATP by scintillation counting method. On the set-up: scale not given: the % may be the effect or the level left.
Data set [3] deals with Serine-protein kinase ATM (Homo sapiens) (UniProt Q13315). The data set is described as follows: Inhibition of recombinant full-length human ATM assessed as residual activity at 10 uM using GST-cMyc-p53 as substrate measured after 40 mins by ELISA. For orientation: ELISA stands for enzyme-linked immunosorbent assay.
The target of data set [4] is Rhodopsin kinase GRK1 (Homo sapiens) (UniProt Q15835). The data set is described as follows: Inhibition of recombinant full-length human GRK1 assessed as residual activity at 10 uM using KKKKERLLDDRHDSGLDSMKDEE as substrate measured after 40 mins in presence of [gamma33P]ATP by scintillation counting method.
Data set [5] deals with Serine/threonine-protein kinase DCLK2 (Homo sapiens) (UniProt Q8N568). The data set is described as follows: Inhibition of recombinant human DCAMKL2 (376 to end residues) assessed as residual activity at 10 uM using KKLNRTLSFAEPG as substrate measured after 40 mins in presence of [gamma33P]ATP by scintillation counting method.
Data set [6] concerns the target Ribosomal protein S6 kinase alpha-5 (Homo sapiens) (UniProt O75582). Put plainly: Inhibition of recombinant human MSK1 (2 to end residues) assessed as residual activity at 10 uM using GRPRTSSFAEGKK as substrate measured after 40 mins in presence of [gamma33P]ATP by scintillation counting method.
The species entered for another data set is Mus musculus. The data set is described as follows: Inhibition of recombinant full-length mouse PI3K p110alpha/p85alpha H1047R mutant assessed as residual activity at 10 uM using phosphatidylinositol-4, 5-bisphosphate as substrate measured after 40 mins by HTRF assay. On the technique in general: In TR-FRET formats the signal depends on donor and acceptor labels being close together.

Data set [7] deals with Focal adhesion kinase 1 (Homo sapiens) (UniProt Q05397). The data set is described as follows: Inhibition of recombinant human FAK (411 to 686 residues) assessed as residual activity at 10 uM using EEEEYEEEEEEYYIIEEEEEEYEEEEEEYYEEEEEEKKKK as substrate measured after 40 mins in presence of [gamma33P]ATP by scintillation counting method.
The target of data set [8] is Inhibitor of nuclear factor kappa-B kinase subunit epsilon (Homo sapiens) (UniProt Q14164). Put plainly: Inhibition of recombinant full-length human IKKepsilon assessed as residual activity at 10 uM using casein as substrate measured after 40 mins in presence of [gamma33P]ATP by scintillation counting method.
For data set [9], the target named is Tyrosine-protein kinase SYK (Homo sapiens) (UniProt P43405). The data set is described as follows: Inhibition of recombinant full-length human Syk assessed as residual activity at 10 uM using poly(Glu, Tyr) 4:1 as substrate measured after 120 mins in presence of [gamma33P]ATP by scintillation counting method.
For data set [10], the system named is Macrophage colony-stimulating factor 1 receptor (Homo sapiens), P07333 [Y969C]. Put plainly: Inhibition of recombinant human FMS Y969C mutant (538 to end residues) assessed as residual activity at 10 uM using EEEEYEEEEEEYYIIEEEEEEYEEEEEEYYEEEEEEKKKK as substrate measured after 40 mins in presence of [gamma33P]ATP by scintillation counting method.
Data set [11] deals with Homeodomain-interacting protein kinase 1 (Homo sapiens) (UniProt Q86Z02). Put plainly: Inhibition of recombinant human activated HIPK1 (158 to 555 residues) assessed as residual activity at 10 uM using myelin basic protein as substrate measured after 40 mins in presence of [gamma33P]ATP by scintillation counting method.
Data set [12] concerns the target Protein kinase C theta type (Homo sapiens) (UniProt Q04759). The data set is described as follows: Inhibition of recombinant full-length human PKCtheta assessed as residual activity at 10 uM using histone H1as substrate measured after 40 mins in presence of [gamma33P]ATP by scintillation counting method.
Data set [13] deals with Protein-tyrosine kinase 6 (Homo sapiens) (UniProt Q13882). The data set is described as follows: Inhibition of full-length recombinant human BRK assessed as residual activity at 10 uM using poly(Glu, Tyr) 4:1 as substrate measured after 40 mins in presence of [gamma33P]ATP by scintillation counting method.
For data set [14], the target named is Ribosomal protein S6 kinase alpha-2 (Homo sapiens) (UniProt Q15349). Put plainly: Inhibition of recombinant full-length human Rsk3 assessed as residual activity at 10 uM using KKKNRTLSVA as substrate measured after 40 mins in presence of [gamma33P]ATP by scintillation counting method.
Data set [15] deals with Testis-specific serine/threonine-protein kinase 1 (Homo sapiens) (UniProt Q9BXA7). Put plainly: Inhibition of recombinant full-length human TSSK1 assessed as residual activity at 10 uM using KKKVSRSGLYRSPSMPENLNRPR as substrate measured after 120 mins in presence of [gamma33P]ATP by scintillation counting method.
Data set [16] deals with Dual specificity protein kinase CLK3 (Homo sapiens) (UniProt P49761). Put plainly: Inhibition of recombinant full-length human CLK3 assessed as residual activity at 10 uM using ERMRPRKRQGSVRRRV as substrate measured after 40 mins in presence of [gamma33P]ATP by scintillation counting method.
Data set [17] in a line: Toxicity in nude BALB/c mouse xenografted with human HCT116 cells assessed as change in body weight at 80 mg/kg, po administered once daily for 4 weeks measured every 3 days during compound dosing. It counts as organism-based. Particulars: in vivo. For orientation: In xenograft studies the graft and the host belong to different species.
In data set [18] the target is Serine/threonine-protein kinase Chk1 (Homo sapiens) (UniProt O14757). The data set is described as follows: Inhibition of recombinant full length human CHK1 assessed as residual activity at 10 uM using KKKVSRSGLYRSPSMPENLNRPR as substrate measured after 40 mins in presence of [gamma33P]ATP by scintillation counting method.
The species named for the next data set is Homo sapiens. The data set is described as follows: Inhibition of recombinant full-length human PI3K p110delta/p85alpha N253S mutant assessed as residual activity at 10 uM using phosphatidylinositol-4, 5-bisphosphate as substrate measured after 40 mins by fluorescence assay.
In data set [19] the target is Citron Rho-interacting kinase (Homo sapiens) (UniProt O14578). Put plainly: Inhibition of recombinant human CRIK assessed as residual activity at 10 uM using KKLRRTLSVA as substrate measured after 120 mins in presence of [gamma33P]ATP by scintillation counting method.
Sequence of Citron Rho-interacting kinase (Homo sapiens) (O14578 whole entry): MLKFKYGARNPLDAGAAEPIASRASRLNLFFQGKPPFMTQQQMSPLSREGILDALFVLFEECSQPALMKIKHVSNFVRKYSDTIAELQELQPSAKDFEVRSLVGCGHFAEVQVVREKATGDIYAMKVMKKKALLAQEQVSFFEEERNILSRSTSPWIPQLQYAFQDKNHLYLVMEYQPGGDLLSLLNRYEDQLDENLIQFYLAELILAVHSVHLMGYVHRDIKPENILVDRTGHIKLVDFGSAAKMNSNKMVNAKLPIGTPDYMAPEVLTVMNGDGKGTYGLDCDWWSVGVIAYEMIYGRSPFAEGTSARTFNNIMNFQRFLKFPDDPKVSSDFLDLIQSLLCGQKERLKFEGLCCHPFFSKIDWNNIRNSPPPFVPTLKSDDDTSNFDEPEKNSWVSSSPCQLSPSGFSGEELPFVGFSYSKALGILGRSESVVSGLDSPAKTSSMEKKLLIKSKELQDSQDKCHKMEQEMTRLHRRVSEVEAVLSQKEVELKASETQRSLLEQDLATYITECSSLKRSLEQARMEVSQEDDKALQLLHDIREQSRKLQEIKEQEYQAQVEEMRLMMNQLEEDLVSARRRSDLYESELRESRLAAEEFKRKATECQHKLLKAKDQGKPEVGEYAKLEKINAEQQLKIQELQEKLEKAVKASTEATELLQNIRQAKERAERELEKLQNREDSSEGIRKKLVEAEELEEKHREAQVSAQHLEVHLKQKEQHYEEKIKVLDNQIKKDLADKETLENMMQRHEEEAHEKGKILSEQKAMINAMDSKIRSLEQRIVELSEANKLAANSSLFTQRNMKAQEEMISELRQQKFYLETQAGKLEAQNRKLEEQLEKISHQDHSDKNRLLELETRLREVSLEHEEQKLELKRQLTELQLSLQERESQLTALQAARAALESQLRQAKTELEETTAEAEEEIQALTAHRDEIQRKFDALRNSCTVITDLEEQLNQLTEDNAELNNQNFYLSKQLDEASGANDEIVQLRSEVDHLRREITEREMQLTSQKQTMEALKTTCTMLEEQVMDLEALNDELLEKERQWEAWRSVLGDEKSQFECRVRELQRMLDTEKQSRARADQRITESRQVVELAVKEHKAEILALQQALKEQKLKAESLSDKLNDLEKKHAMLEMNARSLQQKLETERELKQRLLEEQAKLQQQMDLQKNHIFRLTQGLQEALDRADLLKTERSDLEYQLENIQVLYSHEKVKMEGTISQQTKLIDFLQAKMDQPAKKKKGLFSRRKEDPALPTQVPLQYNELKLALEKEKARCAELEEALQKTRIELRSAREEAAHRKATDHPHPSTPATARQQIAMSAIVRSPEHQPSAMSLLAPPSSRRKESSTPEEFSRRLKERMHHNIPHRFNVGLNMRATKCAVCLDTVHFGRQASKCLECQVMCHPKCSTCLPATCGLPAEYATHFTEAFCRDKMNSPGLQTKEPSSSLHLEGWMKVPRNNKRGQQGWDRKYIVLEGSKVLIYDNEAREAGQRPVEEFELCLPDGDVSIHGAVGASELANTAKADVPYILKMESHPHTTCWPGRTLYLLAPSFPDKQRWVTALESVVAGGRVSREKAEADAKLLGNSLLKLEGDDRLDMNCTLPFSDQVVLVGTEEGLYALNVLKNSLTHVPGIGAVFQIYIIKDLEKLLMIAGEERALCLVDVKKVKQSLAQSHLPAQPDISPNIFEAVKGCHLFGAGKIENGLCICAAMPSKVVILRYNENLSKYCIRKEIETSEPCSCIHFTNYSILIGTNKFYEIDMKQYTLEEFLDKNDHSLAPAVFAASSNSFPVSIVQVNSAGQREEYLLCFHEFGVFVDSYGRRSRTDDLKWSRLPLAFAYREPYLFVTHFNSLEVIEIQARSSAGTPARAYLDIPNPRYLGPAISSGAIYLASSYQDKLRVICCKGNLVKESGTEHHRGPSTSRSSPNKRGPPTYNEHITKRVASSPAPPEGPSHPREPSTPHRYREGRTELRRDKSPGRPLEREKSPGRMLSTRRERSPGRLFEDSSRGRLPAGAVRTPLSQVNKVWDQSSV

Sequence of Mast/stem cell growth factor receptor Kit (Homo sapiens), P10721 [D816H] (P10721 whole entry D816H): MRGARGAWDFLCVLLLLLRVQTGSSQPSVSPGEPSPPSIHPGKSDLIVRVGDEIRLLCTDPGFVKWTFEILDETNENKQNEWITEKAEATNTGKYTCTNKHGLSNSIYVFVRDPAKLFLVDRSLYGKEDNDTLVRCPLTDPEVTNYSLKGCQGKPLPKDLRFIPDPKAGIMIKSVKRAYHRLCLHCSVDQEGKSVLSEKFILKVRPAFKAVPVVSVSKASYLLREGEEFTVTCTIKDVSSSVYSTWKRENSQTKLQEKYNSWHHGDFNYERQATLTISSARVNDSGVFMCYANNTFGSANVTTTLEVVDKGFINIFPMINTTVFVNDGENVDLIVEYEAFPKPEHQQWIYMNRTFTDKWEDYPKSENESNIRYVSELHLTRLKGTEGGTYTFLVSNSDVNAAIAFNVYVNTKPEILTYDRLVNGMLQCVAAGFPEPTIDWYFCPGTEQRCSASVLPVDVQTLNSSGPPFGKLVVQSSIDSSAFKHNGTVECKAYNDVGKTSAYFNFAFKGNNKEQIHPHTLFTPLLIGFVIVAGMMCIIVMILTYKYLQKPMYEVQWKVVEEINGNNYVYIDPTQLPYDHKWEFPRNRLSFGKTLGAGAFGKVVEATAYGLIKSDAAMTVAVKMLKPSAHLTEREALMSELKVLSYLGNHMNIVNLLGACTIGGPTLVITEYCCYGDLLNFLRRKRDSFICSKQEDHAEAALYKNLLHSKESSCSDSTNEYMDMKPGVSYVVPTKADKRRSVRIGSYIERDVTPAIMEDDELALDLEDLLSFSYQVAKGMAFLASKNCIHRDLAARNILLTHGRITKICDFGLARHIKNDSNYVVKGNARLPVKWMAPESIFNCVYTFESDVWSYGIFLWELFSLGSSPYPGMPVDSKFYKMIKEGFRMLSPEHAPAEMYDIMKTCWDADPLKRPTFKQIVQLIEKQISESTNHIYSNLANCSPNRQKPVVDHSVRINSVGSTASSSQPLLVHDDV
Sequence of Rhodopsin kinase GRK1 (Homo sapiens) (Q15835 whole entry): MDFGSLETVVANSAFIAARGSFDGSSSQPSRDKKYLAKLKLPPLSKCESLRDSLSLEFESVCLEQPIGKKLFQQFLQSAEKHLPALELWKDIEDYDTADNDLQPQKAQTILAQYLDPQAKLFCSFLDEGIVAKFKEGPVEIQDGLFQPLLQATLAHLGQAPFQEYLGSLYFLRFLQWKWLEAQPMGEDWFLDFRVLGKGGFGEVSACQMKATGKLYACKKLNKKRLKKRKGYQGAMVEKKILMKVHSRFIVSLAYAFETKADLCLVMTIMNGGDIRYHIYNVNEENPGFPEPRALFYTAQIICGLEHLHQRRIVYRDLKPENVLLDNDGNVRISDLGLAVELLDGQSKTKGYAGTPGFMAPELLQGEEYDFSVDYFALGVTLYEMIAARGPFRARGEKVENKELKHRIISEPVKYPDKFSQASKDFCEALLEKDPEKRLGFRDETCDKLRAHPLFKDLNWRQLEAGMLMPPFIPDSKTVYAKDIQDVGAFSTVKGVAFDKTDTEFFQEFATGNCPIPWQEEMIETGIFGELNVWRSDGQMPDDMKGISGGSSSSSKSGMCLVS
Sequence of Inhibitor of nuclear factor kappa-B kinase subunit epsilon (Homo sapiens) (Q14164 whole entry): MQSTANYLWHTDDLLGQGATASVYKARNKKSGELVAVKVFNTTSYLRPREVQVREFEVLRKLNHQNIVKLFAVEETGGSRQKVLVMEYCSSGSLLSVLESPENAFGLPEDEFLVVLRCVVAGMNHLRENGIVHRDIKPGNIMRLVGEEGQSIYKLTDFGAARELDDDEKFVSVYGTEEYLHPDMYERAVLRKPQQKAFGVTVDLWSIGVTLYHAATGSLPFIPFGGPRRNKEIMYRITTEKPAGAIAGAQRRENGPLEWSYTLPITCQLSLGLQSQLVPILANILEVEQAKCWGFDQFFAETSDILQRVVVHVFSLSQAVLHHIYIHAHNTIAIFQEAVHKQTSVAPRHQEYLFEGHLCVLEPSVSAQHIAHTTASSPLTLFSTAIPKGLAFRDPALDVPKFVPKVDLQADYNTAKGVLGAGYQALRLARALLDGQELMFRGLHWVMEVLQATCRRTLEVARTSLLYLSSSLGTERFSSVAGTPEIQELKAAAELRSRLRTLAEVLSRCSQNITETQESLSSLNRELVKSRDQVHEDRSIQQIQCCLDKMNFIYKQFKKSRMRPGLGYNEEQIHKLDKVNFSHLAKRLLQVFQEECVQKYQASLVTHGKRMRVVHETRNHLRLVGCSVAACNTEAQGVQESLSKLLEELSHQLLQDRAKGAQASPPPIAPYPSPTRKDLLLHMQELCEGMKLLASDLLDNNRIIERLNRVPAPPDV
Sequence of Protein kinase C theta type (Homo sapiens) (Q04759 whole entry, looked up): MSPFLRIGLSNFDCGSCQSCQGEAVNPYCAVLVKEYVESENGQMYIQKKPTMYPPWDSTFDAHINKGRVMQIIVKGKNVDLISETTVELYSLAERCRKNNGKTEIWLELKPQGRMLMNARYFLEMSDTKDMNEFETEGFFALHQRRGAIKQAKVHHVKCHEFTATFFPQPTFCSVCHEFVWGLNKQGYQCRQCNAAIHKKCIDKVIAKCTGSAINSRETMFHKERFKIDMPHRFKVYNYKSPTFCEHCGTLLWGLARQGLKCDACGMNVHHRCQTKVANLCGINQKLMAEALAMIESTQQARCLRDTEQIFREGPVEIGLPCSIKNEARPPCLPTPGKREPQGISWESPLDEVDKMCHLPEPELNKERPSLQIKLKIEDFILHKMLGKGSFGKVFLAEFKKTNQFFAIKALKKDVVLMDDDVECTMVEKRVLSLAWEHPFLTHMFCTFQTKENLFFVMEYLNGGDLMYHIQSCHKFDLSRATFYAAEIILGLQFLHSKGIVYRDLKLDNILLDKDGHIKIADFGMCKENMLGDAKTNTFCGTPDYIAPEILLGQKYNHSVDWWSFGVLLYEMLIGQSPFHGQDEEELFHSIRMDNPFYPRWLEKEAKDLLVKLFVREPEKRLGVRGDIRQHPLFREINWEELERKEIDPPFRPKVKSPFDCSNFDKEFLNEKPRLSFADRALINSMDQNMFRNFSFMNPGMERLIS

In the case of `Cc1cc(C)c(CNc2nc(Cl)nc3c2ncn3C2CCCC2)c(=O)[nH]1`, at Tubulin (Homo sapiens), the result was Active. Also, the Activity stood at 101% in [1]; 95.5% in [2]; 95.5% in data set [3]; 90.5% in data set [4]; 110% in data set [5]; 112% in data set [6]. For the same compound, the Activity in the data set filed under Mus musculus turned out to be 99%; in data set [7], 104%; in data set [8] it was 98.5%; in [9], 123%; in data set [10], 94.5%; in data set [11], 100%. The Activity in [12] was 103%; in [13], 100%; in data set [14], 114%; in data set [15], 110%; in data set [16], 116%; in data set [17], “Non-Toxic”. Also, the Activity in [18] amounted to 106%; in the data set filed under Homo sapiens it was 99.5%; in [19], 109%.
